Paper PMC5736709, “Unravelling the specificity and mechanism of sialic acid recognition by the gut symbiont Ruminococcus gnavus” (Nature Communications, 2017)
Entries after “also recorded” stand apart in the source; their conditions may differ.

Assays:
Design in all cases: species or system Ruminococcus gnavus ATCC 29149
RgCBM40 [1] = biological target: T1, RgCBM40 (Mediterraneibacter gnavus (Ruminococcus gnavus), UniProt A7B557); assay: ITC of sialoglycans binding to RgCBM40 wild type; details: RgCBM40 WT; for Kd: ITC in PBS, 115-230 μM protein in cell, syringe 10 mM sugar (25 mM for Neu5Ac), * = estimate only, Kd too high to determine; for -T∆S / ∆G / ∆H: ITC, SD of three results
Experimental: (§1) Isothermal titration calorimetry (ITC) experiments were performed using the PEAQ-ITC system (Malvern, Malvern, UK) with a cell volume of 200 µl. Prior to titration protein samples were exhaustively dialysed into PBS. The ligand was dissolved in the dialysis buffer. The cell protein concentration was 115 µM (except for mutant I95A where it was 173 µM and the wild-type interaction with 6′SL where it was 230 µM) and the syringe ligand concentration was 10 mM (25 mM for Neu5Ac). Controls with titrant (sugar) injected into buffer only were subtracted from the data. Analysis was performed using Malvern software, using a single-binding site model. The stoichiometry of binding sites was set to 1.0 as this was evident from the crystal structure. Quantitative and most qualitative experiments were carried out in triplicate.

RgCBM40 I95A = biological target: T2, RgCBM40 I95A (Mediterraneibacter gnavus (Ruminococcus gnavus), UniProt A7B557, I95A); assay: ITC of sialoglycans binding to RgCBM40 mutant I95A; details: for Kd: 173 µM protein, syringe 10 mM sugar (25 mM for Neu5Ac), * = estimate only
T2 sequence (A7B557 50-237 I95A): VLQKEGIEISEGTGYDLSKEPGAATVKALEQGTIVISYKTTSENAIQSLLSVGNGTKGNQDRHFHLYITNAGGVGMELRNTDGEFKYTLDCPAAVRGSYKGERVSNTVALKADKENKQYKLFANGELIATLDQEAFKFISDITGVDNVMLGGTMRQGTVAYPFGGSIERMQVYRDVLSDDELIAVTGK
Experimental: (§2) Site directed mutagenesis of RgGH33 to introduce the D282A mutation in the active site was carried out using the QuikChange kit, following the manufacturer’s instructions, Agilent (Santa Clara, CA, USA). Site-directed mutants of RgCBM40; I95A, Y116A, E126A, R128A, R204A and double mutant R128A/R204A, were obtained from NZyTech (Lisbon, Portugal). The primers are listed in Supplementary Table 4. The integrity of the RgGH33 and RgCBM40 mutants was checked by circular dichroism (CD).
as §1

RgCBM40 R204A = biological target: T3, RgCBM40 R204A (Mediterraneibacter gnavus (Ruminococcus gnavus), UniProt A7B557, R204A); assay: ITC of sialoglycans binding to RgCBM40 mutant R204A; details: for Kd: ITC
T3 sequence (A7B557 50-237 R204A): T2 sequence (A7B557 50-237 I95A)
Experimental: as §2, §1

RgCBM40 [2] = biological target: T1, RgCBM40; assay: STD NMR of sialoglycans with RgCBM40 WT; details: 1 mM sialoglycan, 50 μM RgCBM40 WT, 288 K; 'exception' = monosaccharides for which binding was not detected
Experimental: ^1H and ^13C resonance assignment for all the sugars was performed on the bases of 1D ^1H, 2D DQF-COSY, TOCSY, HSQC and NOESY experiments run on the free ligands in unbuffered D2O, pH 7.0. For STD NMR experiments, all the samples consisted of 1 mM sialoglycans and 50 μM RgCBM40 (WT or I95A mutant) in D2O buffer solution of 10 mM Tris-d11 pH 7.8 and 100 mM NaCl (ligand: protein ratio 20:1). An STD pulse sequence that included 2.5 ms and 5 ms trim pulses and a 3 ms spoil gradient was used. Saturation was achieved applying a train of 50 ms Gaussian pulses (0.40 mW) on the f2 channel, at 0.60 p.p.m. (on-resonance experiments) and 40 p.p.m. (off-resonance experiments). The broad protein signals were removed using a 40 ms spinlock (T1ρ) filter. All the experiments were recorded at ^1H frequency of 800.23 MHz on a Bruker Avance III spectrometer equipped with a 5 mm probe TXI 800 MHz H-C/N-D-05 Z BTO, at 288 K. For all the sialoglycans in the presence of RgCBM40, an STD experiment with a saturation time of 2 s and a relaxation delay of 5 s was performed, as a first test for binding. For the confirmed binders, the STD NMR experiments were carried out at different saturation times (0.5, 1, 2, 3, 4 and 5 s) with 1 K scans and relaxation delay of 5 s, in order to obtain the binding epitope mapping. The resulting build-up curves for each proton were fitted mathematically to a mono-exponential equation (y = a×[1-exp(b×x)]), from which the initial slopes (a×b) were obtained. For each ligand, the binding epitope mapping was obtained by dividing the initial slopes by the one of the H7 proton of the corresponding sialic acid ring, to which an arbitrary value of 100% was assigned. This normalisation of the STD values allows the comparison across all the sialoglycans.

[3] = test system: RgCBM40 binding to LS174T MUC2; assay: ELISA of RgCBM40 binding to LS174T MUC2 in competition with sugars; details: RgCBM40 preincubated with 1 mM free sugar overnight at 4 °C; immobilised LS174T MUC2; A450
Experimental: RgCBM40 binding to purified mucins was tested by ELISA. Mucins (100 μl of 10 μg ml^−1) were immobilised onto a high binding 96 well plate (Greiner, Stonehouse, UK) overnight at 4 °C. All subsequent steps were carried out for 1 h at room temperature. The plates were blocked with 3% (w/v) BSA, incubated with RgCBM40 (500 μg ml^−1), followed by an incubation with 1:5000 anti-RgNanH (raised in rabbit, Biogenes) then with 1:5000 anti-rabbit secondary antibody (raised in donkey) conjugated to peroxidase (GE Healthcare). Between each step, the plate was washed with 3 × 300 μl of PBS containing 0.05% (v/v) Tween 20 (PBST). Prior to detection, an additional wash step and 30 s incubation with PBST was carried out. Binding was detected using tetramethylbenzidine (TMB) visualisation solution (Biolegend, San Diego, CA, USA) which was incubated for 15 min. The reaction was stopped by addition of 2 M H2SO4 and absorbance measured at 450 nm using a plate-reader (Bench Marl Plus, Biorad), subtracting background readings at 570 nm. Negative controls including no RgCBM40 (subtracted from A450 value), no primary or no secondary antibody were carried out in parallel. For comparison between plates, values were normalised to the reading for LS174T MUC2 which was arbitrarily set at 100%. For enzymatic treatment of the mucin, LS174T MUC2 (2 mg ml^−1) was incubated with sialidases (2 µg ml^−1) overnight at 4 °C on a rotary wheel prior to immobilisation on the plate. For chemical treatment of mucin, LS174T MUC2 was incubated with 0.1 M trifluoroacetic acid (TFA) at 80 °C for 1 h, dialysed against ammonium bicarbonate (50 mM), lyophilised and redissolved in H2O. For the competition assays, RgCBM40 was incubated with 1 mM of free sugar overnight at 4 °C on a rotary wheel prior to addition to the ELISA plate as above. Experiments were carried out in triplicate.

| Structure (SMILES) | Kd (RgCBM40 [1]) [µM] | -T∆S (RgCBM40 [1]) [kcal/mol] | ∆G (RgCBM40 [1]) [kcal/mol] | ∆H (RgCBM40 [1]) [kcal/mol] | -T∆S (RgCBM40 I95A) [kcal/mol] | ∆G (RgCBM40 I95A) [kcal/mol] | ∆H (RgCBM40 I95A) [kcal/mol] | Kd (RgCBM40 I95A) [µM] | Binding by ITC (in words) (RgCBM40 R204A) | Kd (RgCBM40 R204A) [µM] | Binding to RgCBM40 detected by STD NMR (RgCBM40 [2]) | Effect of free sugar on adherence of RgCBM40 to MUC2 [3] |
| --- | --- | --- | --- | --- | --- | --- | --- | --- | --- | --- | --- | --- |
| CC(=O)N[C@H]1[C@H]([C@H](O)[C@H](O)CO)O[C@@](O[C@H]2[C@@H](O)[C@@H](CO)O[C@@H](O[C@H]3[C@H](O)[C@@H](O)C(O)O[C@@H]3CO)[C@@H]2O)(C(=O)O)C[C@@H]1O (stereo partly drawn) [3′SL, α2-3 sialyllactose] | 570 | 1.47 ± 0.77 | -4.43 ± 0.05 | -5.90 ± 0.72 | 0.97 ± 0.47 | -3.74 ± 0.04 | -4.71 ± 0.43 | 1820 | abolished; also recorded: loss of binding | > 25000 | detected | significantly decreased |
| CC(=O)N[C@H]1[C@H]([C@H](O)[C@H](O)CO)O[C@@](OC[C@H]2O[C@@H](O[C@H]3[C@H](O)[C@@H](O)C(O)O[C@@H]3CO)[C@H](O)[C@@H](O)[C@H]2O)(C(=O)O)C[C@@H]1O (stereo partly drawn) [6′SL, α2,6-sialyllactose] | 1700 | 5.82 ± 0.48 | -3.78 ± 0.05 | -9.61 ± 0.44 | -0.12 ± 0.3 | -3.91 ± 0.07 | -3.79 ± 0.24 | 1370 | abolished | > 25000 | detected | significantly decreased |
